Laboratory results taken from patent US12448373B2, “Azetidinyl-acetamides as CXCR7 inhibitors” (CHEMOCENTRYX, INC., priority 2021, dated 2025).

The compounds below were run against T1, CXCR7 (Homo sapiens, UniProt P25106) (assay: CXCR7 β-arrestin recruitment assay in CHO-CXCR7 cells (ProLink/EA β-galactosidase complementation), induced by human SDF-1a). Settings: assay buffer, SDF-1a at EC50 concentration.
T1 construct: expressed in transfected cells; host or cells: CHO cells (CHO-CXCR7), transgenes maintained with Hygromycin B and G418
Type: cell-based
Procedure, shortened: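 CHO cells co-expressing ProLink-tagged CXCR7 and β-arrestin-EA were pre-plated overnight, then given compound and human SDF-1α at its same-day EC50. After 1.5 h at 37 °C, complemented β-galactosidase was read from 0.4 mM 3-carboxyumbelliferyl β-D-galactopyranoside (30 min, 37 °C; ex 360/em 465 nm). IC50 by 3-parameter fit.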

T1 sequence (P25106 whole entry): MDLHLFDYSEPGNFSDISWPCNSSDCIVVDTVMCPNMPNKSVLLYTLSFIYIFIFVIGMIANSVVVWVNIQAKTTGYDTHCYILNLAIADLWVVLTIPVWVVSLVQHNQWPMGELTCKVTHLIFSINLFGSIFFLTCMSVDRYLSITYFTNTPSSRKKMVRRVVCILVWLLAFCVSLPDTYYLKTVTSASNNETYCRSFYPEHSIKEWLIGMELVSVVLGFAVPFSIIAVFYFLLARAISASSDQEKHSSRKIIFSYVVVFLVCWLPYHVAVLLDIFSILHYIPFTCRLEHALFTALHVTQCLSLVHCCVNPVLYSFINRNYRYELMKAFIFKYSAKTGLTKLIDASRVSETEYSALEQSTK

| IC50 | SMILES |
| --- | --- |
| 5 to 100 nM | COc1cc(C)cc(C(C)(C)NC(=O)CC2(NC(=O)c3nnc(-c4ccc(F)cc4F)s3)CN([C@H]3CC[C@](C)(O)CC3)C2)n1 [Example 1.346] |
| 100 to 1000 nM | Cc1cc(C(C)C)cc(C(C)(C)NC(=O)CC2(NC(=O)c3nnc(-c4ccc(F)cc4F)s3)CN([C@H]3CC[C@](C)(O)CC3)C2)n1 [Example 1.347] |
| 5 to 100 nM | Cc1cc(Cl)cc(C(C)(C)NC(=O)CC2(NC(=O)c3nnc(-c4ccc(F)cc4F)s3)CN([C@H]3CC[C@](C)(O)CC3)C2)c1 [Example 1.348] |
| 5 to 100 nM | Cc1cc(C(F)(F)F)cc(C(C)(C)NC(=O)CC2(NC(=O)c3nnc(-c4ccc(F)cc4F)s3)CN([C@H]3CC[C@](C)(O)CC3)C2)n1 [Example 1.349] |
| 5 to 100 nM | Cc1cc(C2CC2)cc(C(C)(C)NC(=O)CC2(NC(=O)c3nnc(-c4ccc(F)cc4F)s3)CN([C@H]3CC[C@](C)(O)CC3)C2)n1 [Example 1.350] |
| 100 to 1000 nM | Cc1cc(C)nc(C(C)(C)NC(=O)CC2(NC(=O)c3cc(-c4ccc(F)cc4F)on3)CN(C3CCOCC3(C)C)C2)n1 (stereo not drawn) [Example 1.351] |
| 5 to 100 nM | Cc1cc(C#N)cc(C(C)(C)NC(=O)CC2(NC(=O)c3nnc(-c4ccc(F)cc4F)s3)CN([C@H]3CC[C@](C)(O)CC3)C2)n1 [Example 1.352] |
| 100 to 1000 nM | Cc1cc(C)nc(C(C)(C)NC(=O)CC2(NC(=O)c3cc(-c4ccc(F)cc4F)on3)CN(C3CCOC3(C)C)C2)n1 (stereo not drawn) [Example 1.353] |
| 100 to 1000 nM | Cc1cc(C)nc(C(C)(C)NC(=O)CC2(NC(=O)c3cc(-c4ccc(F)cc4F)on3)CN(C3CC(C)OC(C)C3)C2)n1 (stereo not drawn) [Example 1.354] |
| < 5 nM | Cc1cc(C)nc(C(C)(C)NC(=O)CC2(NC(=O)c3cc(-c4ccc(F)cc4F)on3)CN(C3CC(C)(C)OC(C)(C)C3)C2)n1 [Example 1.355] |
| 5 to 100 nM | C[C@]1(O)CC[C@H](N2CC(CC(=O)NC3(c4ncccn4)CC3)(NC(=O)c3cc(-c4ccc(F)cc4F)on3)C2)CC1 [Example 1.356] |
| 5 to 100 nM | CC1(C)CC(N2CC(CC(=O)NC(C)(C)c3cccc(Cl)c3)(NC(=O)c3cc(-c4ccc(F)cc4F)on3)C2)CCO1 (stereo not drawn) [Example 1.357] |
| < 5 nM | Cc1cc(Cl)cc(C(C)(C)NC(=O)CC2(NC(=O)c3cc(-c4ccc(F)cc4F)on3)CN(C3CCOC(C)(C)C3)C2)n1 (stereo not drawn) [Example 1.358] |
| 5 to 100 nM | Cc1cc(C)nc(C(C)(C)NC(=O)CC2(NC(=O)c3cc(-c4ccc(F)cc4F)on3)CN(C3CCOC(C)(C)C3)C2)n1 (stereo not drawn) [Example 1.359] |
| < 5 nM | CC(C)(NC(=O)CC1(NC(=O)c2cc(-c3ccc(F)cc3F)on2)CN(C2(C)CCCCC2)C1)c1cccc(Cl)c1 [Example 1.360] |
